Assay results taken from patent US12054562B2, “Cell-permeable inhibitory agent and methods of use thereof in treatment of cognitive and mood disorders” (priority 2015, dated 2024).

Key:
[1] = test system: α5GABAA receptor cell-surface expression; assay: Receptor cell-surface ELISA assay in cultured hippocampal neurons; assay type: cell-based, mouse; conditions: for etomidate-induced increase in α5GABAA receptor surface expression: peptide 2 μM, 24 hrs, astrocyte-conditioned medium (etomidate 1 μM, 1 hr)
Experimental: This experimental cell culture model was used to test the effects of the inhibitory peptide on an overexpression of α5GABAA receptors on the surface of neurons. The medium from astrocytes that were treated with etomidate (1 μM, 1 hr) (conditioned medium) was collected, and the medium bathing cultured hippocampal neurons was exchanged with the astrocyte-conditioned medium. The cells were incubated at 37° C., 5% CO2 with the peptide or scramble peptide (2 μM). After 24 hrs incubation, the cells were used for receptor cell-surface ELISA assay. The cells were fixed in 4% paraformaldehyde for 20 min in the presence (permeabilized) or absence (non-permeabilized) of 1% Triton-X100. The cells, after 3 times wash with cold PBS and blocked with 5% bovine album solution, were incubated with a α5 antibody (Santa Cruz Biotech Inc.) at 4° C. overnight. The next day the cells were thoroughly washed with PBS and incubated with the horseradish peroxidase (HRP)-conjugated secondary antibody for 2 hrs. With HRP substrate added and color developed in the medium, the results were determined with microplate reader.
The cell surface expression of α5 subunit was presented as the ratio of the colorimetric reading under non-permeabilized conditions to those permeabilized conditions. Consistent with the previous report, etomidate increases α5GABAA receptor surface expression. This increase was blocked by the specific peptide, but not the scramble peptide (FIG. 6A).
For astrocyte culture, cortical astrocytes were isolated from embryonic day 18 (E18) mouse embryos. Cells were allowed to grow to confluence in MEM and 10% fetal bovine serum (FBS; Life Technologies, Grand Island, New York) for 14 d. Cells were then enzymatically dissociated with trypsin-EDTA (0.05%; Life Technologies, Grand Island, New York), and passaged three times to obtain a nearly pure astrocytic culture. Astrocytes were then plated at a density of 25,000 cells per dish. […]

[2] = test system: GABAA receptor-mediated tonic current in hippocampal neurons; assay: Whole-cell voltage-clamp recordings of tonic current in astrocyte-neuron co-cultures; assay type: cell-based, mouse; conditions: for tonic current: neurons grown in co-cultures
radixin = assay: Western blot of radixin phosphorylation in hippocampus of treated mice; assay type: in vivo, mouse; conditions: etomidate 8 mg/kg, i.p., hippocampi 24 hrs later
Experimental: We next asked whether injection of inhibitory peptide, when administered to mice in vivo by I.P. injection, reduced the level of α5GABAA receptors expressed in the hippocampus. To test whether the peptide reduces α5GABAA receptor cell-surface expression in vivo, we took advantage of a mouse model that we developed recently (Zurek, et al., 2014), in which up-regulation of α5GABAA receptor cell surface expression causes memory deficits. Adult mice (22-25 g) were treated with etomidate (8 mg/kg, i.p.), and sacrificed 24 hrs later according to a protocol approved by the Animal Care Committee of the University of Toronto. The hippocampi were collected and subject to experiments. We first measured the level of radixin phosphorylation, because radixin phosphorylation is required for the recruitment of α5GABAA receptors to extrasynaptic sites of the neurons (Loebrich et al., 2006; Hausrat et al., 2015). The antibody against threonine at 564 of radixin, which is specific for radixin phosphorylation involving α5GABAA receptor extra-synaptic trafficking, was used for these studies (Choii et al., 2015; Hausrat et al., 2015). […] We next examined whether the inhibitory peptide prevented α5GABAA receptor from trafficking to surface membrane in vivo by studying ex vivo brain slices. […]

[3] = test system: etomidate-induced memory deficits in mice; assay: Novel object recognition task, prevention paradigm; assay type: in vivo, mouse; conditions: Etom 8 mg/kg i.p., NOR next day
Source text: The novel object recognition task involves the presentation of two identical objects for visual inspection (in the case of humans and non-human primates) and exploration in the case of rodents. After a delay, one of the original objects is presented together with a new (novel) object. Humans and animals normally spend time more time looking at (or in the case of mice, exploring) the novel object. Indeed, the test relies on the innate preference of humans and animals for novelty. The inspection or interaction time differs only if the familiar object is recognized. Otherwise, the subject spends an equal amount of time inspecting both objects. […]
In the present study, mice were handled two times a day, 5 min each before start of behavioral experiments. Object recognition was assessed in a circle opaque chamber with the diameter of 38.5 cm in a regular lit room. […] Movement and interaction with the objects was recorded with a video camera that was mounted above the chamber. The exploratory behavior and mouse activity was analyzed blindly by a person with a good training and the software EthoVision, XT v11.5 provided by the Noldus Information Tech Inc., (Leesburg VA, USA). […] Memory was assessed by measuring the novelty preference ratio (i.e., the ratio of time spent exploring the novel object to the time spent exploring both objects). […]

[4] = target: T1, α5 subunit-radixin interaction (Mus musculus, UniProt P26043); assay: Co-immunoprecipitation and Western blot of α5 subunit-radixin coupling in hippocampal tissue lysate; assay type: binding; conditions: 20 μM peptide without TAT sequence, one hour incubation
T1 construct: tissue lysate prepared from the hippocampus of adult mice; from tissue; host or cells: hippocampus of adult mice (C57BL/6J×SvEv)
T1 sequence (P26043 whole entry): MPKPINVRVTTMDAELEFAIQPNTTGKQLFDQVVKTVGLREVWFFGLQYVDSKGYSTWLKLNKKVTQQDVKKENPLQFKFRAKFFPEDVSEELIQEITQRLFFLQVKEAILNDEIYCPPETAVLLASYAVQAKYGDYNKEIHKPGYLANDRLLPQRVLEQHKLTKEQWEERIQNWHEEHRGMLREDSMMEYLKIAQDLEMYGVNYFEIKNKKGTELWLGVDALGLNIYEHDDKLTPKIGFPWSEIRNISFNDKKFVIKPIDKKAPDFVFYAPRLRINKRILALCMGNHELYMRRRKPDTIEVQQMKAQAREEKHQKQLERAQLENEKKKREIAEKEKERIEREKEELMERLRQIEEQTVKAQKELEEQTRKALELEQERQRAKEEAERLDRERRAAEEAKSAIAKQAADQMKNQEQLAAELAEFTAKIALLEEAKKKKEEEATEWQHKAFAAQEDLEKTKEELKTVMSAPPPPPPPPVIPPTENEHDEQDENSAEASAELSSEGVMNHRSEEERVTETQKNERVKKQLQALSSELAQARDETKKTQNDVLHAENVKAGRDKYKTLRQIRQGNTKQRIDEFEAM
Experimental: The experiments used tissue lysate prepared from the hippocampus of adult mice (C57BL/6J×SvEv, 2-4 month old, male). Hippocampal tissue was homogenized in ice-cold RIPA buffer (20 mM Tris-HCL, pH 7.5, 150 mM NaCl, 1 mM Na2EDTA, 1 mM EGTA, 1% NP-40, 1% sodium deoxycholate, 2.5 mM sodium pyrophosphate, 1 mM β-glycerophosphate) supplemented with 1 mM sodium orthovanadate and 1% protease inhibitor cocktail and 1% phosphatase inhibitor cocktail (Roche Diagnostics, GmbH, Manheim Germany). The tissue lysate was subsequently spun at 14,000 rpm for 30 min with the Microfuge 22R Centrifuge (Beckman Coulter™, Brea, California, US). The supernatant was collected and frozen at −20 C°. The next day, the supernatant, after thawing, was re-centrifuged at 14,000 rpm for another 30 min to clear the potential undissolved or pellet substances. After spinning twice, the supernatant was collected for subsequent experiments.
One hour following the incubation, the antibodies (2-4 μg) against either α5 subunit (cat #sc—31417, Santa Cruz Biotechnology, Inc., 10410 Finnell St. Dallas, TX, 75220, USA) or radixin (cat #ab91312, Abcam Inc., c/o 913860, PO Box 4090 Stn A, Toronto, ON M5W 0E9), or 4 μg of non-specific IgG protein (cat #sc—2028, Santa Cruz Biotechnology, Inc., 10410 Finnell St. Dallas, TX, 75220, USA), were added to the lysate solution. […]

## CCOC(=O)c1cncn1[C@H](C)c1ccccc1 [etomidate]
[1]; medium from astrocytes treated with etomidate 1 μM, 1 hr, 24 hrs incubation
  α5GABAA receptor surface expression: increases
[2]; etomidate 1 μM, 1 h, measured 24 h after treatment
  amplitude of the tonic current: caused an increase
radixin
  radixin phosphorylation (pThr564): increases
  total radixin protein level: does not alter
[3]
  preference for the novel object (NOR): showed no preference

## FC(F)OC(Cl)C(F)(F)F (stereo not shown) [isoflurane]
[2]; ISO, 250 μM
  tonic current: persistent increase

## Cc1ncc2n1-c1ccc(Cl)cc1C(c1ccccc1F)=NC2 [midazolam]
[2]; MDZ, 200 nM
  tonic current: persistent increase

## CC(C)c1cccc(C(C)C)c1O [propofol]
[2]; Prop, 3 μM
  tonic current: persistent increase

## FCOC(C(F)(F)F)C(F)(F)F [sevoflurane]
[2]; SEVO, 266 μM
  tonic current: persistent increase

## AWDGKKAL (listed as Homo sapiens) [Peptide C8, N-terminal truncated peptide, positions 350-357]
[1]
  etomidate-induced increase in α5GABAA receptor surface expression: prevented

## DGKKAL (listed as Homo sapiens) [Peptide C6, N-terminal truncated peptide, positions 352-357]
[1]
  etomidate-induced increase in α5GABAA receptor surface expression: did not

## GWAWDGKKAL (listed as Homo sapiens) [Peptide C10, N-terminal truncated peptide, positions 348-357]
[1]
  etomidate-induced increase in α5GABAA receptor surface expression: prevented

## KKAL (listed as Homo sapiens) [Peptide C4, N-terminal truncated peptide, positions 354-357]
[1]
  etomidate-induced increase in α5GABAA receptor surface expression: did not

## KRGWAWDGKKAL (listed as Homo sapiens) [α5pΔN4]
[1]
  etomidate-induced increase in α5GABAA receptor surface expression: retains the inhibitory function

## NYFTKRGWAWDG (listed as Homo sapiens) [α5pΔC4]
[1]
  etomidate-induced increase in α5GABAA receptor surface expression: lost the inhibitory function

## TYFGRKNALWKAWKGD (Scramble peptide) [reference compound]
[4]
  association between α5 subunit and radixin: did not reduce this association
